Tests used:
human V2 receptors = human V2 receptors (Homo sapiens, UniProt P30518); settings: cited from earlier work
human V1a receptors = human V1a receptors (Homo sapiens, UniProt P37288); settings: various species, in particular human V1a receptors; J. Clin. Invest., 1993, 92 224-231; cited from earlier work
[1] = test system: normally hydrated conscious rat; assay: water diuresis induced in the normally hydrated conscious rat (urinary volume, osmolality, Na+ and K+ excretion over 24 h); format: in vivo, Sprague Dawley male rats; settings: for effect on urinary excretion (in words) / effect on urinary excretion of Na+ and K+ ions (in words) / effect on urinary osmolality (in words): oral, over 24 hours
Procedure: Serradeil-Le Gal et al., J. Clin. Invest. 1996, 98, 2729-2738.
The various assays are performed on Sprague Dawley male rats (280+/−20 g) obtained from Iffa Credo (France).
Twenty four hours before the start of the study, the rats were randomized and placed in metabolic cages with food and water ad libitum. They received orally 3 ml/kg of a 0.6% aqueous solution of methylcellulose. The urines were collected over a 24 hour period, i.e. day D-1.
The next morning the rats are treated orally (solvent or products alone or in combination) and returned individually to their metabolic cage for a period of 24 hours with food and water ad libitum. The urines are collected over a period of 24 hours after treatment, i.e. day D-0.
Urinary osmolality and the urinary excretion of Na^+ and K^+ ions are also measured during the 24 hour period before and after treatment. The urinary osmolality is measured with a freezing point depression osmometer (Fisk OS 110 model, Elvetec, Marseille, France) and the urinary concentrations of sodium and potassium are measured with a flame photometer (IL 943, Instruments Laboratories, Marseille, France).
The compounds alone (compound A, compound B) or in combination (compound A+compound B) are suspended in a 0.6% aqueous solution of methylcellulose and administered by gavage in a final volume of 3 ml/kg.
Compound B was used in the form of its dihydrogen phosphate monohydrate salt, the doses indicated are expressed in terms of the base.
The results are expressed in the form of the mean+/−SEM (standard error of the mean). The statistical analysis of the results is performed by means of a two factor variance analysis with repeated measurements of the time factor. The comparison of the means is made with the aid of the Dunnett test for a comparison with respect to a time or group of reference. Only the values of p lower than 5% are considered to be significant (p<0.05).
ASSAY No. 1: Comparative effect on urinary excretion, urinary osmolality and excretion of the Na^+ and K^+ ions in the rat after oral administration of compound A alone, compound B alone and of the combination compound A^+ compound B.
a) Study Performed by Oral Administration of a Fixed Dose of Compound A (30 mg/kg) combined with increasing doses of compound B (0.3, 1 or 3 mg/kg).
b) Study Performed by Oral Administration of a Fixed Dose of Compound B (1 mg/kg) combined with increasing doses of compound A (3,10 or 30 mg/kg).

[2] = study a, 30 mg/kg oral, D0 0-24 h after treatment
[3] = study a, 30 mg/kg oral, D-0 0-24 h after treatment
[4] = study a, group of 30 mg/kg oral, D-1 0-24 h, day before treatment (solvent only)
[5] = study a, compound A 30 mg/kg, compound B 0.3, 1 or 3 mg/kg, alone or combined
[6] = study b, 30 mg/kg oral, D0 0-24 h after treatment
[7] = study b, group of 30 mg/kg oral, D-1 0-24 h, day before treatment (solvent only)
[8] = study a, 0.3 mg/kg oral, D0 0-24 h after treatment
[9] = study a, 0.3 mg/kg oral, D-0 0-24 h after treatment
[10] = study a, 1 mg/kg oral, D0 0-24 h after treatment
[11] = study a, 1 mg/kg oral, D-0 0-24 h after treatment
[12] = study a, 3 mg/kg oral, D0 0-24 h after treatment
[13] = study a, 3 mg/kg oral, D-0 0-24 h after treatment
[14] = study a, group of 0.3 mg/kg oral, D-1 0-24 h, day before treatment (solvent only)
[15] = study a, group of 1 mg/kg oral, D-1 0-24 h, day before treatment (solvent only)
[16] = study a, group of 3 mg/kg oral, D-1 0-24 h, day before treatment (solvent only)
[17] = study b, 1 mg/kg oral, D0 0-24 h after treatment
[18] = study b, group of 1 mg/kg oral, D-1 0-24 h, day before treatment (solvent only)
[19] = study b, compound B 1 mg/kg alone or combined with compound A 3, 10 or 30 mg/kg

human V2 receptors, sequence (P30518 whole entry): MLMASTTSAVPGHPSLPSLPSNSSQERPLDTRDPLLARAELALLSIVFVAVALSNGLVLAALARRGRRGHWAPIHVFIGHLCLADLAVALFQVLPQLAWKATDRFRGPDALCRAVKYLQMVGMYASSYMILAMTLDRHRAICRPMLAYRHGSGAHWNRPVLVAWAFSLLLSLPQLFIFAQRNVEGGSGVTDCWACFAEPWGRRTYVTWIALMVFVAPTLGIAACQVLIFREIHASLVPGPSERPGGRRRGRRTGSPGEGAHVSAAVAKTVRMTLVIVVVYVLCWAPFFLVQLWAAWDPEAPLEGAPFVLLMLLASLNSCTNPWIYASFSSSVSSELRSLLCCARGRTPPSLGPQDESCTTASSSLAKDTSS
human V1a receptors, sequence (P37288 whole entry): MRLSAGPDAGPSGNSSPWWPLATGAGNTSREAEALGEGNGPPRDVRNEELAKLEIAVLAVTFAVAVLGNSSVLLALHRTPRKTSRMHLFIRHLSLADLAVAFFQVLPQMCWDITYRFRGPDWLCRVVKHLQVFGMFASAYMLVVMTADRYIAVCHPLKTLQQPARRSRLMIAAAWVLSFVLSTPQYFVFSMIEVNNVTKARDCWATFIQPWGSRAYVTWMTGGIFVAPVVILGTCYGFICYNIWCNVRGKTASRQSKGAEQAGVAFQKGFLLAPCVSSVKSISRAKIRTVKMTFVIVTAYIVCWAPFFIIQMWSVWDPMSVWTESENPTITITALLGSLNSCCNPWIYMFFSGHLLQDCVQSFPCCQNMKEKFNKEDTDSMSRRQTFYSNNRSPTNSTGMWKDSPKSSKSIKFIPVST

## COc1ccc(S(=O)(=O)N2c3ccc(Cl)cc3[C@](O)(c3ccccc3Cl)[C@@H]2C(=O)N2CCC[C@H]2C(N)=O)cc1OC [Compound A, (2S)-1-{(2R,3S)-5-chloro-3-(2-chlorophenyl)-1-(3,4-dimethoxybenzenesulfonyl)-3-hydroxy-2,3-dihydro-1H-indole-2-carbonyl}pyrrolidine-2-carboxamide]
Human V2 receptors; literature description
  affinity for the V2 receptors (in words): low affinity
Human V1a receptors
  V1a arginine vasopressin receptor antagonism (in words): potent and selective
[1]; [2]
  urinary excretion of K+: 2190 µmol
  urinary excretion of Na+: 1668 µmol
[1]; [3]
  Urinary osmolality: 2462 +/− 379^ mOsmol/kg H2O
  Urinary volume: 7.3 ± 1.2 mL
[1]; [4]
  Urinary osmolality: 1409 +/− 13 mOsmol/kg H2O
  Urinary volume: 10.7 ± 1.1 mL
  urinary excretion of K+: 2265 µmol
  urinary excretion of Na+: 1903 µmol
[1]; [5]
  effect on urinary excretion (in words): does not modify
  effect on urinary excretion of Na+ and K+ ions (in words): does not alter
  effect on urinary osmolality (in words): does not modify
[1]; [6]
  Urinary osmolality: 2462 +/− 379^ mOsmol/kg H2O
  Urinary volume: 7.3 +/− 1.2^ ml
  urinary excretion of K+: 2190 µmol
  urinary excretion of Na+: 1668 µmol
[1]; [7]
  Urinary osmolality: 1409 +/− 13 mOsmol/kg H2O
  Urinary volume: 10.7 ± 1.1 mL
  urinary excretion of K+: 2265 µmol
  urinary excretion of Na+: 1903 µmol

## CCOc1ccc2c(c1)C1(CCC(OCCN3CCOCC3)CC1)C(=O)N2S(=O)(=O)c1ccc(C(=O)NC(C)(C)C)cc1OC (stereo not drawn) [Compound B, 1-{4-(N-tert-butylcarbamoyl)-2-methoxybenzenesulfonyl}-5-ethoxy-3-spiro{4-(2-morpholino-ethyloxy)cyclohexane}indol-2-one]
Human V2 receptors; various species, in particular human V2 receptors, J. Clin. Invest., 1996, 98, 2729-2738
  V2 arginine vasopressin receptor antagonism (in words): potent and selective
[1]; [8]
  urinary excretion of K+: 2254 µmol
  urinary excretion of Na+: 1668 µmol
[1]; [9]
  Urinary osmolality: 1075 +/− 165^a mOsmol/kg H2O
  Urinary volume: 15 ± 2 mL
[1]; [10]
  urinary excretion of K+: 2334 µmol
  urinary excretion of Na+: 1783 µmol
[1]; [11]
  Urinary osmolality: 618 +/− 27^a mOsmol/kg H2O
  Urinary volume: 25 +/− 2.2^a ml
[1]; [12]
  urinary excretion of K+: 2648 µmol
  urinary excretion of Na+: 2168 µmol
[1]; [13]
  Urinary osmolality: 292 +/− 40^a mOsmol/kg H2O
  Urinary volume: 72.9 +/− 11.1^a ml
[1]; [14]
  Urinary osmolality: 1371 +/− 125 mOsmol/kg H2O
  Urinary volume: 9.1 ± 0.7 mL
  urinary excretion of K+: 2001 µmol
  urinary excretion of Na+: 1772 µmol
[1]; [15]
  Urinary osmolality: 1376 +/− 99 mOsmol/kg H2O
  Urinary volume: 9.1 ± 0.7 mL
  urinary excretion of K+: 2034 µmol
  urinary excretion of Na+: 1840 µmol
[1]; [16]
  Urinary osmolality: 1443 +/− 46 mOsmol/kg H2O
  Urinary volume: 9.5 ± 0.6 mL
  urinary excretion of K+: 2022 µmol
  urinary excretion of Na+: 1903 µmol
[1]; [5]
  effect on urinary excretion (in words): significantly increases
  effect on urinary excretion of Na+ and K+ ions (in words): no effect
  effect on urinary osmolality (in words): significantly diminishes
[1]; [17]
  Urinary osmolality: 616 +/− 51^a mOsmol/kg H2O
  Urinary volume: 31.6 +/− 3.5^a ml
  urinary excretion of K+: 2944 µmol
  urinary excretion of Na+: 2203 µmol
[1]; [18]
  Urinary osmolality: 1308 +/− 68 mOsmol/kg H2O
  Urinary volume: 11.7 ± 1.5 mL
  urinary excretion of K+: 2519 µmol
  urinary excretion of Na+: 2039 µmol
[1]; [19]
  effect on urinary excretion (in words): significantly increases
  effect on urinary excretion of Na+ and K+ ions (in words): no effect
  effect on urinary osmolality (in words): significantly diminishes
